PMC10303166, “Design, Synthesis, Biological Evaluation, and Molecular Docking Study of 4,6-Dimethyl-5-aryl/alkyl-2-[2-hydroxy-3-(4-substituted-1-piperazinyl)propyl]pyrrolo[3,4-c]pyrrole-1,3(2H,5H)-diones as Anti-Inflammatory Agents with Dual Inhibition of COX and LOX” (Pharmaceuticals, 2023)
Like-named read-outs stand apart in the source and are kept apart here.

Tests used:
[1] = target: T1, COX-2 (Homo sapiens, UniProt P35354); assay: Colorimetric cyclooxygenase inhibition assay (COX-2); assay type: biochemical; conditions: for IC50: incubation for 2 min with the tested compounds at a concentration of 100 µM, mean (SD); for COX Selectivity Ratio IC50(COX-2)/IC50(COX-1): ratio COX-2 over COX-1
T1 sequence (P35354 18-604): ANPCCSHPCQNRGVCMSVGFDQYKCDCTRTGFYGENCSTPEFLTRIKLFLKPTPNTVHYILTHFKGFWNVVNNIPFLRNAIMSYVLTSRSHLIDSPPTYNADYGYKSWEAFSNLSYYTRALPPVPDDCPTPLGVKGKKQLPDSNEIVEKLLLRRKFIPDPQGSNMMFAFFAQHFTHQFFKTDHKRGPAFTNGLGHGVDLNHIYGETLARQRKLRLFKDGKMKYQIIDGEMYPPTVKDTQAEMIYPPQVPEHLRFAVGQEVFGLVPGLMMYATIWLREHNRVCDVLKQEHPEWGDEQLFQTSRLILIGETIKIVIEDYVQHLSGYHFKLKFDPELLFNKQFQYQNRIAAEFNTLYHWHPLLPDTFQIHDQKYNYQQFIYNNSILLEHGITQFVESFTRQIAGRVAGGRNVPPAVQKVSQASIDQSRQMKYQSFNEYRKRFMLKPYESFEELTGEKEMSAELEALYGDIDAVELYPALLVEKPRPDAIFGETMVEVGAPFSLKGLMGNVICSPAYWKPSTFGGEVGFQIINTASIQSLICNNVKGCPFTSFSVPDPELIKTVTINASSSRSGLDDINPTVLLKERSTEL
Experimental: COX peroxidase activity was evaluated by colorimetric evaluation of the occurrence of the oxidized form of N, N, N′, N′-tetramethyl-p-phenylenediamine (TMPD). The reduction of PGG2 (prostaglandin G2) to PGH2 is due to the oxidation of TMPD. […] The tested compounds wells included 110 μL Assay Buffer, 10 μL Hemin, and 40 μL solution of tested compounds, which was dissolved in DMSO in a final concentration of 10 mM. These samples were performed in three replicates for every compound. […] Subsequently, 20 μL substrate, i.e., arachidonic acid, was added. The entire plate was shaken for 5 min. The result is a change in color measured at 590 nm with a Varioskan LUX microplate reader (Thermo Scientific, Waltham, MA, USA).

[2] = tested on: NHDF cells; assay: SRB viability assay on NHDF cells; assay type: cell-based; conditions: Homo sapiens, 48 h incubation with NHDF cells, tested 10-100 µM, mean (SD)
Experimental: The NHDF (CC-2511) was purchased from Lonza, Basel. This line was derived from human dermal fibroblasts grown in 5% CO2 with 95% humidity at 37 °C. Cells were cultured with 10% FBS and 2 mM L-glutamine, 1.25 μg/mL Amphotericin B, and 100 μg/mL Gentamicin. Twice a week, the morphology and confluence were evaluated under microscopy. The confluence was above 70%, and the NHDF cells were subcultured with TrypLE solution.
The new 2-[2-hydroxy-3-(4-substituted-1-piperazinyl)propyl] derivatives were dissolved in DMSO to a concentration of 10 mM and stored at −20 °C. The samples were prepared in four different concentrations of compounds (10 µM, 25 µM, 50 µM, and 100 µM), so the concentration of DMSO for cells was […].
Viability evaluation was performed using the Sulforhodamine B (SRB) dye. The SRB assay was carried out 24 h after seeding. The culture plates were fixed with a cold TCA solution with a final concentration of 10% w/v for 1 h at 4–8 °C. This plate was T0 control. T0 is cell before treatment tested compounds. The supernatant was removed from the culture. The compounds were added and incubated for 48 h at 5% CO2, 95% humidity, and 37 °C. The culture was fixed with a cold TCA solution. The same condition was performed on the T0 plate. […] The absorbance was measured at 540 nm with a Varioskan LUX microplate reader (Thermo Scientific, Waltham, MA, USA).

[3] = target: 15-LOX (Glycine max, UniProt P08170); assay: Lipoxygenase inhibitor screening assay; assay type: biochemical; conditions: 15-LO, arachidonic acid substrate; mean (SD)
15-LOX, sequence (P08170 whole entry): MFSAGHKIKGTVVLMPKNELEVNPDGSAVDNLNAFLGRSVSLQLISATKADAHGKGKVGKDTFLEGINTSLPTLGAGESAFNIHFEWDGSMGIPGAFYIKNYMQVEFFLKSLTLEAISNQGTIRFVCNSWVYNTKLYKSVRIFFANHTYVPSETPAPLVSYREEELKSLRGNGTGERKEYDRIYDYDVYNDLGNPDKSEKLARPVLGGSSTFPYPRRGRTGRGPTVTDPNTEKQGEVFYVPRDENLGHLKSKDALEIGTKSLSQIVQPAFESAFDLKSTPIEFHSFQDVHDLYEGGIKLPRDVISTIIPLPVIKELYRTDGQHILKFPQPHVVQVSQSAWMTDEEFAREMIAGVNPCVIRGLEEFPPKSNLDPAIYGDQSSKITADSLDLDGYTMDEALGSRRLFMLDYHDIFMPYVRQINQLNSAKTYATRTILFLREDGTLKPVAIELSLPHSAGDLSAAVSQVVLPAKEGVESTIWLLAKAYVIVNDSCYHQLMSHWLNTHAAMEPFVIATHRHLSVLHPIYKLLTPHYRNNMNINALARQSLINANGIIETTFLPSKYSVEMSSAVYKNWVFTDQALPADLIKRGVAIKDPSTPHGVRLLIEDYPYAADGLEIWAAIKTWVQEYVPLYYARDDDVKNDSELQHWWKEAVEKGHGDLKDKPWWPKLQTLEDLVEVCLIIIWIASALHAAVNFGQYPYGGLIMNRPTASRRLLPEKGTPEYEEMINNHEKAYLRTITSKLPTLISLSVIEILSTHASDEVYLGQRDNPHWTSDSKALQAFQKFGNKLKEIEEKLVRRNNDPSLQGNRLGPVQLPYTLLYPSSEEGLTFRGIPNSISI
Experimental: The assay detects and measures the hydroperoxides produced in the lipoxygenation reduction using a purified lipoxygenase (LO). Blank wells were prepared that contained 100 μL Assay buffer. The positive control included 10 μL 1x assay buffer and 90 μL 15-LO, but 100% of the Initial activity samples contained 90 μL 15-LO and 10 μL methanol. Samples with test compounds were prepared in triplicate, containing 90 µL of 15-LO and 10 µL of test compound at the assayed concentration of 10 mM. All samples prepared in this way were incubated for 5 min at room temperature. Subsequently, the substrate, i.e., arachidonic acid, was added. The entire test plate was shaken for 10 min. 100 µL of chromogen was added to the samples. The entire plate was shaken for 5 min. The absorbance was read at 490 nm in a VariuScan microplate reader.

[4] = design: method as in PMID 10683864; conditions: "writhing syndrome" test; cited from earlier work
[5] = design: method as in PMID 10683864; conditions: "hot plate" test; cited from earlier work

IC50 [1] | COX Selectivity Ratio IC50(COX-2)/IC50(COX-1) [1] | melting point | SMILES | IC50 [2] | Lipoxygenase Inhibition Assay IC50 LOX [3] | Analgesic activity: acted up to the dose (fraction of LD50) [4] | Analgesic activity: acted up to the dose (fraction of LD50) [5]
59.77 ± 0.05 µM | 0.76 | 180 to 182 °C | CCCCn1c(C)c2c(c1C)C(=O)N(CC(O)CN1CCN(c3ccc(Br)cc3)CC1)C2=O (stereo not drawn) [3b, 4,6-dimethyl-5-butyl-2-[2-hydroxy-3-[4-(p-bromophenyl)piperazin-1-yl]propyl]pyrrolo[3,4-c]pyrrole-1,3(2H,5H)-dione] | – | – | – | –
60.25 ± 0.07 µM | 0.71 | 119 to 122 °C | Cc1c2c(c(C)n1-c1cccc(Cl)c1)C(=O)N(CC(O)CN1CCN(S(C)(=O)=O)CC1)C2=O (stereo not drawn) [3n, 4,6-dimethyl-5-(3-chlorophenyl)-2-[2-hydroxy-3-(N-methylsulphonylpiperazin-1-yl)-propyl]pyrrolo[3,4-c]pyrrole-1,3(2H,5H)-dione] | – | – | – | –
61 ± 0.04 µM | 0.80 | 136 to 138 °C | Cc1c2c(c(C)n1-c1ccccc1)C(=O)N(CC(O)CN1CCN(S(C)(=O)=O)CC1)C2=O (stereo not drawn) [3m, 4,6-dimethyl-5-phenyl-2-[2-hydroxy-3-(N-methylsulphonylpiperazin-1-yl)-propyl]pyrrolo[3,4-c]pyrrole-1,3(2H,5H)-dione] | – | – | – | –
60.05 ± 0.03 µM | 0.76 | 182 to 184 °C | Cc1c2c(c(C)n1-c1ccccc1)C(=O)N(CC(O)CN1CCN(c3ccc(F)cc3)CC1)C2=O (stereo not drawn) [3c, 4,6-dimethyl-5-phenyl-2-[2-hydroxy-3-[4-(p-fluorophenyl)piperazin-1-yl]propyl]pyrrolo[3,4-c]pyrrole-1,3(2H,5H)-dione] | – | – | – | –
57.93 ± 0.02 µM | 0.71 | – | Cc1c2c(c(C)n1-c1ccccc1)C(=O)N(CC(O)CN1CCN(c3ncccn3)CC1)C2=O (stereo not drawn) [3i, 4,6-dimethyl-5-phenyl-2-[2-hydroxy-3-(4-pyrimidynylpiperazin-1-yl)propyl]pyrrolo[3,4-c]pyrrole-1,3(2H,5H)-dione] | – | – | – | –
60.16 ± 0.08 µM | 0.73 | 116 to 118 °C | CCCCn1c(C)c2c(c1C)C(=O)N(CC(O)CN1CCN(c3ccc(C)cc3)CC1)C2=O (stereo not drawn) [3a, 4,6-dimethyl-5-butyl-2-[2-hydroxy-3-[4-(p-methylphenyl)piperazin-1-yl]propyl]pyrrolo[3,4-c]pyrrole-1,3(2H,5H)-dione] | – | – | – | –
59.42 ± 0.06 µM | 0.85 | 139 to 141 °C | CCCCn1c(C)c2c(c1C)C(=O)N(CC(O)CN1CCN(S(C)(=O)=O)CC1)C2=O (stereo not drawn) [3o, 4,6-dimethyl-5-butyl-2-[2-hydroxy-3-(N-methylsulphonylpiperazin-1-yl)-propyl]pyrrolo[3,4-c]pyrrole-1,3(2H,5H)-dione] | 49.47 ± 0.05 µM | – | – | –
60.28 ± 0.02 µM | 0.79 | 179 to 181 °C | Cc1c2c(c(C)n1-c1cccc(Cl)c1)C(=O)N(CC(O)CN1CCN(c3ncccn3)CC1)C2=O (stereo not drawn) [3j, 4,6-dimethyl-5-(3-chlorophenyl)-2-[2-hydroxy-3-(4-pyrimidynylpiperazin-1-yl)propyl]pyrrolo[3,4-c]pyrrole-1,3(2H,5H)-dione] | – | – | – | –
60.55 ± 0.09 µM | 0.70 | 129 to 131 °C | CCOc1ccccc1N1CCN(CC(O)CN2C(=O)c3c(c(C)n(-c4cccc(Cl)c4)c3C)C2=O)CC1 (stereo not drawn) [3g, 4,6-dimethyl-5-(3-chlorophenyl)-2-[2-hydroxy-3-[4-(o-ethoxyphenyl)piperazin-1-yl]propyl]pyrrolo[3,4-c]pyrrole-1,3(2H,5H)-dione] | – | – | – | –
56.43 ± 0.03 µM | 0.64 | 139 to 141 °C | CCCCn1c(C)c2c(c1C)C(=O)N(CC(O)CN1CCN(c3ccc(F)cc3F)CC1)C2=O (stereo not drawn) [3e, 4,6-dimethyl-5-butyl-2-[2-hydroxy-3-[4-(2,4-difluorophenyl)piperazin-1-yl]propyl]pyrrolo[3,4-c]pyrrole-1,3(2H,5H)-dione] | – | higher activity against LOX than Zileuton | – | –
– | – | – | Cc1c2c(c(C)n1-c1ccccc1)C(=O)N(CC(O)CN1CCN(c3ccccc3)CC1)C2=O (stereo not drawn) [II] | – | – | 1/40 | 1/20
59.7 ± 0.03 µM | 0.73 | 143 to 145 °C | Cc1c2c(c(C)n1-c1ccccc1)C(=O)N(CC(O)CN1CCN(c3ccc(F)cc3F)CC1)C2=O (stereo not drawn) [3d, 4,6-dimethyl-5-phenyl-2-[2-hydroxy-3-[4-(2,4-difluorophenyl)-1-piperazinyl]propyl]pyrrolo[3,4-c]pyrrole-1,3(2H,5H)-dione] | 86.55 ± 0.05 µM | – | – | –
60.36 ± 0.06 µM | – | 154 to 156 °C | CCCCn1c(C)c2c(c1C)C(=O)N(CC(O)CN1CCN(c3ccccc3C#N)CC1)C2=O (stereo not drawn) [3f, 4,6-dimethyl-5-butyl-2-[2-hydroxy-3-[4-(o-cyjanophenyl)piperazin-1-yl]propyl]pyrrolo[3,4-c]pyrrole-1,3(2H,5H)-dione] | – | higher activity against LOX than Zileuton | – | –
– | – | – | CCCCn1c(C)c2c(c1C)C(=O)N(CC(O)CN1CCN(c3ccccc3)CC1)C2=O (stereo not drawn) [Compound I] | – | – | 1/80 | 1/20
60.83 ± 0.01 µM | 0.73 | 182 to 184 °C | CCCCn1c(C)c2c(c1C)C(=O)N(CC(O)CN1CCN(c3ncccn3)CC1)C2=O (stereo not drawn) [3k, 4,6-dimethyl-5-butyl-2-[2-hydroxy-3-(4-pyrimidynyl-1-piperazinyl)propyl]pyrrolo[3,4-c]pyrrole-1,3(2H,5H)-dione] | – | – | – | –
59.34 ± 0.04 µM | 0.75 | 135 to 138 °C | Cc1c2c(c(C)n1-c1ccccc1)C(=O)N(CC(O)CN1CCN(c3cccc(C(F)(F)F)c3)CC1)C2=O (stereo not drawn) [3h, 4,6-dimethyl-5-phenyl-2-[2-hydroxy-3-[4-(m-trifluoromethylphenyl)piperazin-1-yl]propyl]pyrrolo[3,4-c]pyrrole-1,3(2H,5H)-dione] | – | – | – | –
